Assay results as given in paper doi:10.1101/2025.08.06.668955, “High-Affinity, Structure-Validated and Selective Macrocyclic Peptide Tools for Chemical Biology Studies of Huntingtin” (bioRxiv, 2025).
Where a SMILES comes first, the peptide text is derived from it. Bridges are numbered along the chain shown (N, C = ends).

Experiments:
HTTQ23-HAP40 = target: T1, HTTQ23-HAP40 (Homo sapiens, UniProt P23610+P42858, INS38QQ); experiment: Differential hydrogen-deuterium exchange mass spectrometry (ΔHDX-MS); assay type: binding; details: 15 μM protein, 1:4 macrocycle, labeling 0.5, 5, 30 mins at 20 °C
T1 construct: Full-length wildtype HTT with a polyQ tract of 23 glutamines; FLAG; made in house; host or cells: Sf9 insect cells (baculovirus)
T1 sequence (P42858 with tags, fused parts or gaps INS38QQ): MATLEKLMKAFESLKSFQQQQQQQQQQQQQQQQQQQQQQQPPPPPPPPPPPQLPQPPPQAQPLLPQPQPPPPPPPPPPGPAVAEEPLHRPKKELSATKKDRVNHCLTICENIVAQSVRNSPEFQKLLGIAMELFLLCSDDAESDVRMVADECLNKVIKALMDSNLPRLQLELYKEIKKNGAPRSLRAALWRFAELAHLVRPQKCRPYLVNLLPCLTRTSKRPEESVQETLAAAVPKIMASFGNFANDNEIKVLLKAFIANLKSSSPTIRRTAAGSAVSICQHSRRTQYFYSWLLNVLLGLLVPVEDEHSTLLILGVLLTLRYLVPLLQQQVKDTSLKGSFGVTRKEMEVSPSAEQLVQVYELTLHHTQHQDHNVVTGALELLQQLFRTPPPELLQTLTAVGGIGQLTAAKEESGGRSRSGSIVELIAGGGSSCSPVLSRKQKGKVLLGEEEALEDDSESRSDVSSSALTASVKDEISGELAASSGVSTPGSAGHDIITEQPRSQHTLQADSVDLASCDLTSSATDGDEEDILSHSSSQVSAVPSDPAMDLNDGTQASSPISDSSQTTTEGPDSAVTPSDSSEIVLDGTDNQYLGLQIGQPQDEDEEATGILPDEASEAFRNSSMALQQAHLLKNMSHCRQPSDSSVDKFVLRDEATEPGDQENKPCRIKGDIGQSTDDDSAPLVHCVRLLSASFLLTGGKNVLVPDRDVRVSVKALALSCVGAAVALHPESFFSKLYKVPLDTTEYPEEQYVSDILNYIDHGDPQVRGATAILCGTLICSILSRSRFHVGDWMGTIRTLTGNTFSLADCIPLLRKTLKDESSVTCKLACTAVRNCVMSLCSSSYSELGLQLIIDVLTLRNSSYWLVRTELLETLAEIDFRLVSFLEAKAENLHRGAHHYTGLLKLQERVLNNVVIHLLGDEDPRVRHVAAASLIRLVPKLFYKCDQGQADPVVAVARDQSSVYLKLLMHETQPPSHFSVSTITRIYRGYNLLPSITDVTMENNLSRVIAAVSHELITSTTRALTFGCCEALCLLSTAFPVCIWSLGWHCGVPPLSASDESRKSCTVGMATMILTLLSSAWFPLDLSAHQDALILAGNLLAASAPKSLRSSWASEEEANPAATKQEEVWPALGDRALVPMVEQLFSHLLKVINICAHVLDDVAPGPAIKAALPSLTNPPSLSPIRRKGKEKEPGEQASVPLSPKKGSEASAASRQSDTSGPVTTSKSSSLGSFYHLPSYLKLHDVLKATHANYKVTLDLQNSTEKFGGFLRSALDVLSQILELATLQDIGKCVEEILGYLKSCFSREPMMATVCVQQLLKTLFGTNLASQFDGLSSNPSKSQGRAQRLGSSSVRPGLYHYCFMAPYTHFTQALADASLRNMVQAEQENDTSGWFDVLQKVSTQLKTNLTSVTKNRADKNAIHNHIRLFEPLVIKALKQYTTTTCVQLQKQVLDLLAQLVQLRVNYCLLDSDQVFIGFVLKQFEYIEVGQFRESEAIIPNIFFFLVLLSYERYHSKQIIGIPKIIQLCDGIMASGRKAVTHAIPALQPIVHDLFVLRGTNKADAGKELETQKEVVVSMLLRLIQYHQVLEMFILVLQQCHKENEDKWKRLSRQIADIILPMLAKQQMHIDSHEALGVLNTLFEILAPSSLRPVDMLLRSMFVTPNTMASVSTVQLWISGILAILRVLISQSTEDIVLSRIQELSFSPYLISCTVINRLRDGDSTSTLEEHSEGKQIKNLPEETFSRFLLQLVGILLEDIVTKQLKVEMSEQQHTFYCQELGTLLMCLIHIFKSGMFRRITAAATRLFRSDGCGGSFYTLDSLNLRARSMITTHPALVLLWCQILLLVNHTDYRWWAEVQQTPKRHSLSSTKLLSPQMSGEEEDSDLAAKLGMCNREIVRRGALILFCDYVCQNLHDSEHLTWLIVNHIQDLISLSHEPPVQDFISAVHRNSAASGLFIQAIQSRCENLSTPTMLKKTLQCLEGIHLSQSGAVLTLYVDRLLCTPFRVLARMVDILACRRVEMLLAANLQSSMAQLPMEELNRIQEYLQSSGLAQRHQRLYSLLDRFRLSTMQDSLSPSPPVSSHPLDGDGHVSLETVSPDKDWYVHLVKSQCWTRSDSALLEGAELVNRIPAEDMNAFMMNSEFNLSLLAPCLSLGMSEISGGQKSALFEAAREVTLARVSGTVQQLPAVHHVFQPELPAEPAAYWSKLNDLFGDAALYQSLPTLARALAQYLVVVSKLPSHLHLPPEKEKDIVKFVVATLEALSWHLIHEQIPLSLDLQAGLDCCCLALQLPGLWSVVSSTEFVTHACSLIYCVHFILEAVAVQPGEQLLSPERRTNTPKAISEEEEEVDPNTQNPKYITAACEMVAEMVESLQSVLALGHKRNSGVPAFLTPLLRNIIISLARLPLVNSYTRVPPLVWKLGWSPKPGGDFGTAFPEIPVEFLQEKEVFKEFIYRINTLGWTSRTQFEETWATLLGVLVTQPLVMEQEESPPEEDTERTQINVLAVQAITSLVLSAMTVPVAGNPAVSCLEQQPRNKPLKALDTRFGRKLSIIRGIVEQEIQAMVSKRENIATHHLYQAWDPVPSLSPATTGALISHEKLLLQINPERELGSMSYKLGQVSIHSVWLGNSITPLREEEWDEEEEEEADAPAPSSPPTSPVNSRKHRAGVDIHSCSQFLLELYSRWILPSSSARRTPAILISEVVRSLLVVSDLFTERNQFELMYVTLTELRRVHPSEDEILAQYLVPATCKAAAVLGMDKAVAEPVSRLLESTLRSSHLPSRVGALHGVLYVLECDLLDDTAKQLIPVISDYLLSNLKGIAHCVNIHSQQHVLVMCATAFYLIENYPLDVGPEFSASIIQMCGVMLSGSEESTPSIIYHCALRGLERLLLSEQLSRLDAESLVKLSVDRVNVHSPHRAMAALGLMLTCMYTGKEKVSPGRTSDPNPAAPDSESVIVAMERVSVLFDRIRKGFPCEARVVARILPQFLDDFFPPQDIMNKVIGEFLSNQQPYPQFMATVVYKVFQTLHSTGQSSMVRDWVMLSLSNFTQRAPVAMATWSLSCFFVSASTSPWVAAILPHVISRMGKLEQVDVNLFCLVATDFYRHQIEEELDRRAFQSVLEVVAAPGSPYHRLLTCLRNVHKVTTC
T1 sequence (P23610 whole entry, stated change not applied): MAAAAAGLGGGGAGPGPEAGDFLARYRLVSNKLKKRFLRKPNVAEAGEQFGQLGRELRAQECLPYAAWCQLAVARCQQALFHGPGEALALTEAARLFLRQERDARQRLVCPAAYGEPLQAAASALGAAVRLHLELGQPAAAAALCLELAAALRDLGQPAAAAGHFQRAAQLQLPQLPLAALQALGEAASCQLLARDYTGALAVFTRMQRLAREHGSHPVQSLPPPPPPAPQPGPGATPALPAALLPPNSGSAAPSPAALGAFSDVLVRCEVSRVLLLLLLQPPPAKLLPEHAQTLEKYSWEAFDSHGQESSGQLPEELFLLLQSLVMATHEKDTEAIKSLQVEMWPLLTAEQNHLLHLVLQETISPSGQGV
Method: Samples were labeled at 3 timepoints (0.5, 5, 30 mins) with 87% (v/v) deuteration buffer (10 mM Phosphate Buffer pD 7.5, 150 mM NaCl) at 20 °C. The HDX reaction was quenched at 50% (v/v) with 7.5 M Guanidine-HCl, 0.5 M TCEP, 100 mM Phosphate Buffer pH 2.5 at 0 °C for 2 min and subsequently diluted with an equal volume of quench dilution buffer (100 mM Phosphate Buffer, pH 2.5). The protein was digested using 1:1 Nepenthesin(II)-Pepsin (Affipro) followed by desalting (ACQUITY UPLC BEH C18 VanGuard Pre-column, Waters) and reverse-phase separation (ACQUITY UPLC BEH C18 Column, Waters). Liquid handling was achieved using the ACQUITY UPLC M-Class System with HDX Technology (Waters) and PAL3 Robotic Tool Change (LEAP, Trajan Scientific and Medical). The peptides were then analyzed using the Select Series Cyclic IMS mass spectrometer (Q-IMS-TOF, Waters). Peptide identification and HDX data analysis were achieved using ProteinLynx Global Server 3.0.3 (Waters) and DynamX 3.0 (Waters), respectively. Microsoft Excel and PyMOL 2.5 were used for visual presentation of HDX data. An AlphaFold 3 model was used to incorporate missing loops for depicting HTTQ23 and HTTQ23-HAP40. The peptide sequence coverage for HTT and HAP40 was 56.6–76.8% and 77.4–82%, respectively (Supplementary Figure 3–5). […]

HAP40 = experiment: Macrocycle precipitation (MP), co-purification of HAP40, LC-MS/MS; assay type: binding, human; details: HEK293T lysate versus HTT CRISPR knockout line
Description: To assess macrocycle selectivity and identify potential HTT interacting proteins, we performed LC-MS/MS analysis of the proteins in the MP eluates. To control for non-specific binding, we performed MPs using lysates from a HTT CRISPR knockout cell line ([Jung et al., 2021]). Across all macrocycles, HTT emerged as the most enriched protein after background subtraction (Figure 5b). Given we performed affinity purification using macrocycles targeting distinct HTT surfaces, we hypothesized that any real HTT protein binder might be co-purified with two or more macrocycles. […] In contrast, HAP40 was not enriched by HL5, consistent with its specificity for apo HTT.
Macrocycles were pre-conjugated to streptavidin beads (Cytiva, 17-5113-01) by incubating with a 30 μL slurry of beads per macrocycle purification (MP) in Lysis Buffer (10 mM Tris-HCl, pH 7.9, 150 mM NaCl, 0.1% NP-40, 1:500 protease inhibitor cocktail (Sigma-Aldrich), 1:1,000 benzonase nuclease, and 2 mM MgCl2) for 1 hour at 4°C. A concentration of 1.25 μM macrocycle was used for conjugation. After incubation, beads were washed three times with 500 μL Lysis Buffer to remove unbound macrocycles and resuspended in 500 μL of lysate at 4 mg/mL protein concentration.
Cells were harvested by centrifugation at 1,500 rpm for 5 minutes, washed twice with PBS, and snap-frozen. Cell pellets were then resuspended in 500 μL of Lysis Buffer (as described above) and incubated on an end-over-end rotator at 4°C for 1 hour. Lysates were clarified by centrifugation at 20,000g for 15 minutes at 4°C, and the supernatant was transferred to fresh 1.5 mL Eppendorf tubes. Protein concentration was determined by BCA assay (Thermo Fisher Scientific, 23225), yielding approximately 4 mg of protein on average. Lysates were diluted to a final concentration of 4 mg/mL for use, providing […] of total protein per MP.
Macrocycle-conjugated beads were incubated with 2 mg of lysate in Lysis Buffer for 1 hour at 4°C with rotation. After incubation, beads were collected by centrifugation at 3,000 rpm, and the flow-through was saved for analysis. Beads were then washed sequentially with 1 mL of Wash Buffer 1 (10 mM Tris-HCl, pH 7.9, 100 mM NaCl, 0.1% NP-40) and twice with Wash Buffer 2 (Wash Buffer 1 without detergent). Lastly, bound proteins were eluted from the beads with 200 μL of 0.5 M NH4OH and flash-frozen in liquid nitrogen.
All sample preparation, LC MS/MS data collection, and MS data searches were carried out at the SPARC BioCentre at The Hospital for Sick Children (Toronto, ON, Canada). […] Samples were analyzed by liquid chromatography tandem mass spectrometry (LC-MS/MS) using an EASY-nanoLC 1200 system with a 1 h analysis and an Orbitrap Fusion™ Lumos™ Tribrid™ Mass Spectrometer (Thermo Fisher Scientific). […]

Structure (SMILES): CC[C@H](C)[C@@H]1NC(=O)[C@H](Cc2c[nH]c3ccccc23)NC(=O)[C@@H]2CCCN2C(=O)[C@H](C)NC(=O)[C@H](C(C)C)NC(=O)[C@H](CCC(N)=O)NC(=O)[C@H](Cc2ccccc2)NC(=O)[C@H](Cc2c[nH]cn2)NC(=O)[C@H]([C@@H](C)O)NC(=O)[C@H](Cc2ccc(O)cc2)NC(=O)CSC[C@@H](C(N)=O)NC(=O)[C@H](CC(C)C)NC(=O)[C@H](CO)NC(=O)[C@H](CCC(N)=O)NC1=O [HL5] ({CH2CO}-YTHFQVAPWIQSLC-NH2; thioether N-14; C-terminus assumed)
- Cumulative ΔHDX of HTTQ23-HAP40 on incubation with macrocycle (HTTQ23-HAP40): no statistically significant cumulative HDX differences
- Enrichment of HAP40 in macrocycle pulldowns (HAP40): not enriched
